Here are results for eight molecules from publication PMC9159852, “Synthesis, Structure, and Biologic Activity of Some Copper, Nickel, Cobalt, and Zinc Complexes with 2-Formylpyridine N^4-Allylthiosemicarbazone” (Bioinorganic Chemistry and Applications, 2022).

Each structure is given as a SMILES string. In brackets after ≈: the same amount, converted by molar mass. Like-named read-outs stand apart in the source and are kept apart here.

The test system of data set [1] is Staphylococcus aureus (ATCC 25923). Set-up: method as in PMID 25708540. The conditions noted are these: S. aureus (G+), reference drug; cited from earlier work.
For data set [2], the system named is Escherichia coli (ATCC 25922). Set-up: method as in PMID 25708540. The conditions noted are these: E. coli (G-), reference drug; cited from earlier work.
Data set [3] has as its system Candida albicans (ATCC 10231). Set-up: method as in PMID 25708540. The conditions noted are these: C. albicans, reference drug; cited from earlier work.
Details of data set [4]: method as in doi:10.1134/s1070363221010114. The conditions noted are these: standard antioxidant; read-out: IC50 toward ABTS•+ radical cation; cited from earlier work.
In data set [5] the test system is human leukemia HL-60 cell line. In words: Antiproliferative activity (MTS and Resazurin assays), HL-60. It is filed as cell-based. As to conditions: for IC50: HL-60, Table 3; for SI (selectivity index): IC50(MDCK)/IC50(HL-60). How it is done: (§1) The antiproliferative activity of the studied substances was determined toward a series of cancer cell lines (HL-60 (ATCC CCL-240), BxPC-3 (ATCC CRL-1687), HeLa (ATCC CCL-2), RD (ATCC CCL-136)), and a normal cell line (MDCK (ATCC CCL-34)). These cell lines were cultured in accordance with the previously described method. Determination of the number of viable cells after cultivation in the presence of various concentrations of the studied substances was carried out by the MTS and Resazurin assays according to the previously described method. The 10-mM stock solutions of the studied compounds as well as the reference compound (doxorubicin) were prepared by dissolving 10 μmol of the corresponding compound in 1 mL of DMSO. The 0.1, 1, 10, and 100 μM solutions were prepared by dilution of the stock solutions with the corresponding medium and used for the study of antiproliferative activity.

For data set [6], the system named is normal kidney epithelial (MDCK) cell line. In words: Antiproliferative activity (MTS and Resazurin assays), MDCK normal cell line. Format: cell-based. The protocol: as §1
In data set [7] the test system is human cervical epithelial (HeLa) cell line. In words: Antiproliferative activity (MTS and Resazurin assays), HeLa. Format: cell-based. The conditions noted are these: for IC50: HeLa; for SI (selectivity index): IC50(MDCK)/IC50(HeLa). The protocol:
as §1

Data set [8] deals with human epithelial pancreatic adenocarcinoma (BxPC-3) cell line. Nature of the data set: Antiproliferative activity (MTS and Resazurin assays), BxPC-3. Format: cell-based. As to conditions: for IC50: BxPC-3; for SI (selectivity index): IC50(MDCK)/IC50(BxPC-3). How it is done:
as §1

In data set [9] the test system is human muscle rhabdomyosarcoma (RD) cell line. Nature of the data set: Antiproliferative activity (MTS and Resazurin assays), RD. As to conditions: for SI (selectivity index): IC50(MDCK)/IC50(RD); for IC50: RD. It is filed as cell-based. How it is done:
as §1

For the next data set, the system named is Daphnia magna. In words: Acute toxicity assay against Daphnia magna. As to conditions: 24 h exposure; for LC50: Daphnia magna. The protocol:
The general toxicity of the tested compounds was evaluated using Daphnia magna (Straus, 1820). Daphnia magna was originated from a culture maintained parthenogenetically at the Institute of Zoology (Laboratory of Systematics and Molecular Phylogeny).
The test design was based on ISO 6341 : 2012. The test-organisms Daphnia magna Straus were fed with Chlorella vulgaris. These unicellular algae were grown using aseptic technology to exclude contamination of the culture by bacteria, algae or protozoa. Chlorella vulgaris were cultivated in Prat's growth medium containing KNO3 (1 μM), MgSO4·7H2O (40 μM), K2HPO4·3H2O (400 μM), FeCl3·6H2O (3.6 μM) in H2O distilled (adjusted the pH to 7.0, autoclaved and stored at 5°C).
D. magna was maintained in aerated aqueous straw infusion growth media supplemented with CaCl2 ([…]), NaHCO3 (2.59 g/L), KCl (0.23 g/L), and MgSO4, 7H2O (4.93 g/L). (pH∼7.5 ± 0.2; O2 ≥ 6.0 mg/L).
Juveniles were selected according to their size and kept in fresh medium for 24 h. D. magna was cultured in Costar® 24-well culture clear sterile multiple well plates covered by a lid to prevent the possibility of contamination and evaporation but at the same time to allow gaseous exchange between air and culture medium. Each well contained 10 daphnids in 1000 μL final volume of each dilution of the tested compounds.
The bioassay was then repeated at the concentrations ranging from 0.1 to 100 μM (0.1, 1, 10, and 100 μM) in order to determine LC50 for each compound, including doxorubicin (the positive control). Aqueous straw infusion growth media was used to dilute the stock solutions to the required concentrations. […] A 0.1% solution of DMSO in aerated medium (pH∼7.5 ± 0.2; O2 ≥ 6.0 mg/L) was used as a negative control. Throughout the experiment, the juvenile daphnids were incubated at 22 ± 2 °C, using a 16 h/8 h light/dark cycle (500–1000 lx). The mobility (viability) of the test organisms was observed after the 24-h exposure. The experiment was performed in triplicate.
The percentage of viability (V (%)) of Daphnia magna was calculated according to the formula:(1) V%=Nsample/Ncontrol×100.
N - Number of viability of Daphnia magna.
The compounds median lethal concentration that kills 50% of the juvenile daphnids (LC50) values were calculated from the dose-response equation determined by the least squares fit method.

For data set [10], the system named is Staphylococcus aureus (ATCC 25923). Nature of the data set: Antibacterial activity, serial dilutions in liquid broth, S. aureus. The conditions noted are these: S. aureus (G+). Format: cell-based. The protocol: (§2) Antibacterial and antifungal properties of the studied substances were determined on a series of standard strains of Gram-positive microorganisms (Staphylococcus aureus (ATCC 25923)), Gram-negative microorganisms (Escherichia coli (ATCC 25922)), and fungi (Candida albicans (ATCC 10231)) using the method of serial dilutions in liquid broth. Stock solutions of the studied compounds as well as the reference compounds (furacillinum and nystatin) were prepared by dissolving 10 mg of the corresponding compound in 1 mL of DMSO. After that, the starting solutions (1 mg/mL) were prepared by tenfold dilution of the stock solution with nutrition medium (2% of peptonate bullion). The next dilutions were prepared by serial double dilution with the nutrition medium.

Data set [11] relates to Escherichia coli (ATCC 25922). Nature of the data set: Antibacterial activity, serial dilutions in liquid broth, E. coli. Format: cell-based. The conditions noted are these: E. coli (G-). How it is done: as §2
Data set [12] concerns Candida albicans (ATCC 10231). In words: Antifungal activity, serial dilutions in liquid broth, C. albicans. It is filed as cell-based. The protocol: as §2
A short description of data set [13]: Antiradical activity, ABTS•+ method. The conditions noted are these: read-out: IC50 toward ABTS•+ radical cation. How it is done: The ABTS^•+ method was applied for the determination of antiradical activity of the studied substances. Standard solutions of ABTS^•+ radical cations and tested substances as well as the conditions of spectrophotometric measurements and calculations of inhibition were made as described. The 10-mM stock solutions of the studied compounds as well as the reference compound (trolox) were prepared by dissolving 10 μmol of the corresponding compound in 1 mL of DMSO. The 1, 10, 100, and 1000 μM solutions were prepared by the dilution of stock solutions with DMSO. After that, 20 μL of each tested compound solutions was transferred in a 96-well microtiter plate, and 180 μL of ABTS^•+ working solution was added to receive solutions with final concentrations of tested compounds 0.1, 1, 10, and 100, respectively.

With `C=CCNC(=S)NN=Cc1cccnc1`, the melting point fell in the range of 180 to 182 °C.
Turning to `C=CCNC(=S)NN=Cc1ccncc1`, the melting point lay in the range of 163 to 165 °C.
`NC(=O)N/N=C/c1ccc([N+](=O)[O-])o1` [Furacillinum, furacillinum]: the minimum bactericidal concentration (MBC) in [1] is 9.3 µg/mL (≈ 46.9 µM); in data set [2], 37.5 µg/mL (≈ 189 µM). Further, the minimal inhibitory concentration (MIC) was 9.3 µg/mL (≈ 46.9 µM) in data set [1] and 18.5 µg/mL (≈ 93.4 µM) in data set [2].
In the case of `C[C@@H]1[C@H](O)[C@@H](C)/C=C/C=C/CC/C=C/C=C/C=C/C=C/C(O[C@H]2O[C@H](C)[C@@H](O)[C@H](N)[C@@H]2O)CC2O[C@](O)(CC(O)C(O)CCC(O)CC(O)CC(O)CC(=O)O[C@H]1C)CC(O)C2C(=O)O` (stereo partly drawn) [Nystatin, nystatin], in data set [3], the minimum fungicidal concentration (MFC) is 80 µg/mL (≈ 86.4 µM) and the minimal inhibitory concentration (MIC) is 80 µg/mL (≈ 86.4 µM).
With `Cc1c(C)c2c(c(C)c1O)CCC(C)(C(=O)O)O2` (stereo not drawn) [Trolox, trolox], the half-inhibitory concentration (IC50) in [4] is 33 ± 0.7 µM.
Take `C=CCNC(=NN=Cc1ccccn1)[S][Cu][O]C(C)=O.C=CCNC(=NN=Cc1ccccn1)[S][Cu][O]C(C)=O.O.O.O.O` [compound 4, [Cu2(L)2(CH3COO)2]·4H2O]: the “Inhibition of cell proliferation, (%)” value was 32.0 ± 2.3% in [5] (HL-60, 0.1 μM); 99.8 ± 0.2% in data set [5] (HL-60, 1 μM); 100.0 ± 0.2% in data set [5] (HL-60, 10 μM). For the same molecule, the half-inhibitory concentration (IC50) in [5] came out at 0.1 ± 0.02 µM; in data set [6], 2 ± 0.2 µM; in data set [7] it was 0.2 ± 0.02 µM; in data set [8] it was 0.02 ± 0.01 µM; in data set [9] it was 0.05 ± 0.01 µM; in data set [13], 40.3 ± 1.8 µM. In addition, the “SI (selectivity index)” value in data set [5] was determined as 20; in data set [7], 10; in data set [8] it was 100; in data set [9], 40. Besides, the “V, (%) percentage of viability of Daphnia magna” value (shortened to “V, (%) percentage”) in the data set on Daphnia magna (0.1 μM) was 76.9 ± 7.3%; with Daphnia magna (1 μM), 66.7 ± 7.3%; with Daphnia magna (10 μM), 0.0%; in the data set with Daphnia magna (100 μM), 0.0%. Also, the 50% lethal concentration (LC50) in the data set with Daphnia magna was 1.3 ± 0.5 µM. The minimal bactericidal concentration (MBC) in [10] worked out at 0.488 µg/mL; in data set [11], 3.91 µg/mL. Further, the MIC was found to be 0.244 µg/mL in data set [10], 1.95 µg/mL in [11] and 31.3 µg/mL in [12]. In data set [12], the MFC is 62.5 µg/mL.
`C=CCNC(=S)NN=Cc1ccccn1.C=CCNC(=S)NN=Cc1ccccn1.O.[Cl-].[Cl-].[Ni+2]` [compound 5, [Ni(HL)2]Cl2·H2O]: the “Inhibition of cell proliferation, (%)” value in data set [5] (HL-60, 0.1 μM) came out at 54.5 ± 1.1%; in data set [5] (HL-60, 1 μM) it was 94.9 ± 0.7%; in [5] (HL-60, 10 μM) it was 108.5 ± 0.5%. In addition, the concentration for half-maximal inhibition (IC50) in data set [5] was 0.09 ± 0.01 µM; in data set [6], over 100 µM; in [7] it was over 100 µM; in data set [8], 3.6 ± 0.9 µM; in data set [9], 2.9 ± 0.4 µM; in data set [13], 8.6 ± 0.1 µM. Moreover, the “SI (selectivity index)” value was over 1000 in data set [5], over 27 in data set [8] and over 34 in [9]. Besides, in data set [6], the “Effect on growth and proliferation of normal MDCK cell line (in words)” value is “practically do not affect the growth and proliferation”. For the same molecule, the “V, (%) percentage” value is 102.6 ± 0.0% in the data set with Daphnia magna (0.1 μM), 102.6 ± 0.0% in the data set on Daphnia magna (1 μM), 97.4 ± 7.3% with Daphnia magna (10 μM) and 87.2 ± 7.3% in the data set with Daphnia magna (100 μM). Besides, the 50% lethal concentration (LC50) in the data set on Daphnia magna was over 100 µM. Besides, the MBC in data set [10] turned out to be 31.3 µg/mL. For the same molecule, the results for the MIC in data set [10], in data set [11] and in data set [12] were 15.6 µg/mL, 1000 µg/mL and 500 µg/mL, respectively.
Turning to `C=CCNC([S-])=NN=Cc1ccccn1.C=CCNC([S-])=NN=Cc1ccccn1.[Cl-].[Co+3]` [compound 6, [Co(L)2]Cl], the “Inhibition of cell proliferation, (%)” value is on record as 4.1 ± 0.3% in data set [5] (HL-60, 0.1 μM); 6.9 ± 1.7% in data set [5] (HL-60, 1 μM); 24.1 ± 0.6% in [5] (HL-60, 10 μM). Also, the 50% inhibitory concentration (IC50) was over 10 µM in data set [5]; over 100 µM in data set [6]; 2.5 ± 0.5 µM in data set [7]; 4.1 ± 0.5 µM in [8]; over 100 µM in [9]; over 100 µM in data set [13]. For the same molecule, the “Effect on growth and proliferation of normal MDCK cell line (in words)” value in data set [6] was “practically do not affect the growth and proliferation”. Further, the “SI (selectivity index)” value is over 40 in data set [7] and over 24 in [8]. In addition, the “V, (%) percentage” value in the data set with Daphnia magna (0.1 μM) came out at 97.4 ± 7.3%; in the data set on Daphnia magna (1 μM), 97.4 ± 7.3%; with Daphnia magna (10 μM) it was 92.3 ± 0.0%; in the data set with Daphnia magna (100 μM), 35.9 ± 7.3%. The molecule also returned an LC50 in the data set with Daphnia magna of 65.4 ± 11.8 µM. In addition, the figures for the minimum bactericidal concentration (MBC) in data set [10] and in [11] were 125 µg/mL and 500 µg/mL, respectively. Moreover, the results for the MIC in data set [10], in data set [11] and in data set [12] were 62.5 µg/mL, 250 µg/mL and 62.5 µg/mL, respectively. Also, the minimum fungicidal concentration (MFC) in [12] came to 250 µg/mL.
